According to patent US6413983B1, “Benzopyranyl heterocycle derivatives, process for preparation thereof, and pharmaceutical compositions containing them” (Dongbu Hannong Chemical Co. Ltd., priority 2000, dated 2002):
pIC50: −log10 of the molar value.

Legend:
[1] = system: cerebral cortical neurons; experiment: Protective activity for neuronal cells against iron-induced damage (LDH release); assay type: cell-based, rat; conditions: 30 μM compound, 50 uM FeSO4, 24 hours, LDH reduction rate vs control
Experimental: From the brains of 17-18 day-old rat embryos, cerebral cortical neurons were isolated and then, cultured at 37° C. for 7-9 days in a 5% CO2 incubator. The cortical cell cultures were washed twice with a minimum essential medium (MEM) to reduce the serum concentration to 0.2% and pre-treated for 30 min with 30 μM of each of test compounds. For the experiments, the test compounds were dissolved in DMSO and diluted in a medium. At this time, the final concentration of DMSO was not allowed to exceed 0.2%. For a control group, only vehicle was applied.
After the pre-treatment with test compounds or vehicle, FeSO4 was added to a final concentration of 50 uM, and the cultures were maintained for 24 hours in a CO2 incubator. During incubation, lactate dehydrogenase (LDH) was released into the medium upon neuronal death by the oxidative toxicity of iron. The extent of neuronal damage was assessed by measuring the amount of LDH released into the media. The protective effect of the compounds of interest on neurons was evaluated by calculating the LDH reduction rate of treatment group compared with that of the control group.

[2] = system: ischemic myocardium damage model of anesthetized rats; experiment: Cardioprotective activity in ischemic heart models of rats (LAD occlusion/reperfusion, anesthetized rats); assay type: in vivo, rat; conditions: rat, in vivo, iv, 0.3 mg/kg
Experimental: After trachetomy, the rats were rendered to respire artificially at a rate of 60/min with a stroke volume of 10 ml/kg. Cannulars were inserted into the fermoral vein and the fermoral artery and used for drug administration and blood pressure measurement, respectively.
In the ischemic myocardial injury models, the body temperature has an important influence on the results. To avoid the change in the body temperature, a body temperature measuring probe was inserted into the rectum of each rat and the body temperature was constantly kept at 37° C. with the aid of a homeothermic blanket control unit.
Afterwards, during testing, a continuous measurement was made of the mean arterial blood pressures and heart rates from the rats. For the measurement of the blood pressure, a pressure transducer, such as that manufactured by Grass Ins., MA, U.S.A., identified as Model Statham P23XL, was used.
The heart rate was measured by a tachometer, such as that manufactured by Gould Inc., Ohio, U.S.A., identified as Biotachometer. In addition, all of the changes occurring were continuously recorded through the Gould 2000 chart recorder, manufactured by Gould Inc.
The left coronary artery was occluded according to the Selye H. method as follows. The rats underwent a left thoracotomy operation for partial opening of the chest and the right-side chest was pressurized by the middle finger of the left hand to push the heart out. Immediately after the left anterior descending coronary artery hereinafter referred to as (LAD) was carefully stitched using a suture needle with 5-0 silk ligature, the heart was then repositioned in the thoracic cavity while both ends of the ligature were situated outside. The opposite ligature ends were passed through a PE tube (PE100, 2.5 cm) and allowed to stand loose for 20 min for stabilization. Via the cannula inserted into the femoral vein, vehicles or drugs were administered into the rats which were rendered to stand for 30 min in order to sufficiently elicit the efficacies of the drugs.
Next, the PE tube which had the doubled strands of the ligature passed therethrough was pushed toward the heart and then, set upright by tightly pulling end regions of the ligature with a hemostatic pincette while pressing the coronary artery.
After the reocclusion of the coronary artery in accordance with the above procedure, the rats were administered with 2 ml of a 1% Evans blue through an intravenous route. Subsequently, an excess of pentobarbital was intravenously injected to kill the rats, after which the heat was removed and then, deprived of the right ventricle and both atria. The left ventricle was cut horizontally to the heart apex into 5 or 6 slices which were weighed. From the surface of each slice, images were input with the aid of a Hi-scope into a computer installed with an image analyzing program (Image Pro Plus). From the images input into the computer, the area of the normal blood stream tissue region which appeared blue in a computer monitor and the area which appeared colorless were measured. The percentage of the colorless area to the total area of each slice was calculated and multiplied by the weight of each slice to determine the area at risk (AAR) of each slice. The AAR obtained from each slice was summed for all slices and the total AAR was divided by the total weight of the left ventricle to yield % AAR, as shown in the following mathematical formula 1:
AAR(%)=(summed AAR for all slices)/(total weight of left ventricle)×100 [Mathematical Formula 1]
During this fixation, 2,3,5-triphenyltetrazolium chloride was reduced into formazan dye by the myocardial dehydrogenase and its cofactor NADH, so that the normal regions of the tissue were colored brick-red. In contrast, the infarct zones of the tissue were deficient in the dehydrogenase and its cofactor, so that no reduction occurred on the 2,3,5-triphenyltetrazolium, allowing the color to remain unchanged.

[3] = system: isolated rat aorta constricted with methoxamine; experiment: Vasodilation effects on isolated aorta of rats (methoxamine-constricted rings); conditions: isolated rat aorta constricted with methoxamine (3 μM); 50% relaxation
Source text: Male Sprague-Dawly rats (350-450 g, obtained from the Experimental Animal Team of the Korea Research Institute of Chemical Technology) were knocked unconscious by hitting the occipital region, sacrificed by cervical dislocation, and underwent thoracotomy. After being quickly removed, the thoracic aorta was deprived of the adipose tissue and cut into aortic rings of 3 mm width. The aorta was lightly rubbed with cotton club soaked in a modified Krebs Henseleit buffer (Physiological Salt Solution, PSS) to remove the inner epithelial layer therefrom.
Thereafter, 3×10^−6 M methoxamine was applied to induce an intensive constriction in the vascular smooth muscle. When the vasoconstriction induced by the methoxamine was reached and maintained to a maximum, test compounds and controls were cumulatively added to the organ baths in concentrations of 1, 3, 10 and 30 μM so as to examine the vasodilation effect.
The change rate of constriction by the addition of the drugs compared to the maximal constriction induced by methoxamine was calculated to plot a concentration-relaxation response curve.

[4] = system: isolated rat hearts; experiment: Cardioprotective activity in isolated ischemic heart models of rats (Langendorff, global ischemia/reperfusion); conditions: for EDP (MmHg) / LDVP × HR (%) / TTC: 10 μM; for EDP (MmHg): left ventricular end-diastolic pressure after 30 min reperfusion; for LDVP × HR (%): reperfusion double product as % of pretreatment DP, 30 min global ischemia, 30 min reperfusion; for TTC: time to contracture during global ischemia
Experimental: Male Sprague-Dawley rats weighing 300-450 g were anesthetized with sodium pentobarbital (100 mg/kg, i.p.). The tail vein was injected with heparin (1,000 U/kg) and then the trachea was intubated. […] A latex balloon filled with solvent (ethanol: water=1:1 (v/v)) and attached to a metal cannula was placed in the left ventricle through pulmonary vein and connected to a Isotec pressure transducer (H.S.E., Germany) for measurement of left ventricular pressure (LVP). […] Then, baseline contractile function, heart rate (HR), and coronary flow (CF) (extracorporeal electromagnetic flow probe, Narco Bio-System, U.S.A.) were measured. Cardiac contractile function was calculated by subtracting LVEDP from LV peak systolic pressure (LVSP), yielding developed pressure (LVDP). Double product (DP), another important parameter for assessing cardiac performance, was calculated by multiplying HR by LVDP. Throughout the experiment, all these parameters were measured, and calculated before and 10 min after pretreatment with each compound and 30 min after the onset of reperfusion with buffer. Data on reperfusion DP were further expressed as the percentage to pretreatment DP.
We then rendered the hearts globally ischemic by completely shutting off the perfusate for 30 min. Severity of ischemia was determined as the time to contracture (TTC, min) during global ischemia in which the first 5 mmHg increase in EDP was observed. Then, the hearts were reperfused and, 30 min later, contractile function (LVDP, DP) and cumulative reperfusion lactate dehydrogenase (LDH) release were measured. LDH was measured as a sensitive index for loss of cell viability with a kit supplied by Boerhinger Mannheim based on the technique of Wroblewski and LaDue [F. Wroblewski and JS.

[5] = system: rat brain homogenate; experiment: Inhibitory activity against iron-induced lipid peroxidation (MDA quantification); assay type: biochemical; conditions: 100 μM compound, 400 μM FeCl2, 37° C., 30 min, MDA reduction rate vs control
Experimental: The rat brain was homogenized in a Krebs buffer (15 mM HEPES, 10 mM glucose, 140 mM NaCl, 3.6 mM KCl, 1.5 mM CaCl2, 1.4 mM KH2PO4, 0.7 mM MgCl2, pH 7.4) and the supernatant separated by centrifugation at 12,000 rpm for 10 min was used for further experiments. FeCl2 was added to a final concentration of 400 μM in the brain homogenate which was then allowed to stand at 37° C. for 30 min for the facilitation of oxidation. Each of the test compounds was added at a concentration of 100 μM and vehicle was used as a control.
Iron facilitates the oxidation of the brain homogenate to produce malondialdehyde (MDA), a lipid peroxidation product. Thus, the lipid peroxidation was determined by MDA quantification. The inhibitory effect of the test compounds against the lipid peroxidation was evaluated by calculating MDA reduction rate of the test compounds compared with that of the control group.
Typically, the MDA quantification is achieved by reacting samples with 2-thiobarbituric acid (TBA) and measuring the absorbance at 530 nm. However, this method is unsuitable to treat samples on a large scale because of a boiling step. Thus, in this experiment, N-methyl-2-phenylindole was used instead of TBA. […] Bioxytech^R LPO-586 Kit was used for MDA quantification.

SMILES: CCOC(=O)[C@@H]1Cc2cc(Cl)ccc2N1[C@H]1c2cc([N+](=O)[O-])ccc2O[C@](C)(C(OC)OC)[C@@H]1O [Example 20, 1-[(2S, 3R, 4S)-3,4-dihydro-2-dimethoxymethyl-3-hydroxy-2-methyl-6-nitro-2H-1-benzopyran-4-yl]-(2S)-2,3-dihydro-1H-5-chloroindole-2-carboxylic acid ethyl ester]
- % Protection [1]: 69%
- AAR/LV (%) [2]: 35.4%
- IZ/AAR (%) [2]: 35.1%
- pIC50 [3]: < 4.52

SMILES: CCOC(=O)[C@@H]1Cc2cc(OC)ccc2N1[C@@H]1c2cc([N+](=O)[O-])ccc2O[C@@](C)(C(OC)OC)[C@H]1O [Example 35, 1-[(2R, 3S, 4R)-3,4-dihydro-2-dimethoxymethyl-3-hydroxy-2-methyl-6-nitro-2H-1-benzopyran-4-yl]-(2S)-2,3-dihydro-1H-5-methoxyindole-2-carboxylic acid ethyl ester]
- LDH (U/g) [4]: 23.2 U/g
- EDP (MmHg) [4]: 19 MmHg
- LDVP × HR (%) [4]: 57.3%
- TTC [4]: 25.1 min
- AAR/LV (%) [2]: 31.6%
- IZ/AAR (%) [2]: 37.8%
- pIC50 [3]: < 4.52

SMILES: CCOC(=O)[C@H]1Cc2cc(OC)ccc2N1[C@@H]1c2cc([N+](=O)[O-])ccc2O[C@@](C)(C(OC)OC)[C@H]1O [Example 36, 1-[(2R, 3S, 4R)-3,4-dihydro-2-dimethoxymethyl-3-hydroxy-2-methyl-6-nitro-2H-1-benzopyran-4-yl]-(2R)-2,3-dihydro-1H-5-methoxyindole-2-carboxylic acid ethyl ester]
- LDH (U/g) [4]: 18.9 U/g
- EDP (MmHg) [4]: 23.3 MmHg
- LDVP × HR (%) [4]: 53.1%
- TTC [4]: 24.7 min
- AAR/LV (%) [2]: 37.5%
- IZ/AAR (%) [2]: 41.4%
- pIC50 [3]: < 4.52

SMILES: CCOC(=O)[C@H]1Cc2ccccc2N1[C@H]1c2cc(N)ccc2O[C@](C)(C(OC)OC)[C@@H]1O [Example 42, 1-[(2S, 3R, 4S)-6-amino-3,4-dihydro-2-dimethoxymethyl-3-hydroxy-2-methyl-2H-1-benzopyran-4-yl]-(2R)-2,3-dihydro-1H-indole-2-carboxylic acid ethyl ester]
- % Protection [1]: 100%
- % Inhibition ([5]; listed as EX. 42): 90%

SMILES: CCOC(=O)[C@@H]1Cc2ccccc2N1[C@H]1c2cc(N)ccc2O[C@](C)(C(OC)OC)[C@@H]1O [Example 43, 1-[(2S, 3R, 4S)-6-amino-3,4-dihydro-2-dimethoxymethyl-3-hydroxy-2-methyl-2H-1-benzopyran-4-yl]-(2S)-2,3-dihydro-1H-indole-2carboxylic acid ethyl ester]
- % Protection [1]: 100%
- % Protection ([1]; listed as EX. 43): 101%
- % Inhibition ([5]; listed as EX. 43): 93%

SMILES: CCOC(=O)[C@H]1Cc2ccccc2N1[C@@H]1c2cc(N)ccc2O[C@](C)(C(OC)OC)[C@H]1O [Example 44, 1-[(2S, 3S, 4R)-6-amino-3,4-dihydro-2-dimethoxymethyl-3-hydroxy-2-methyl-2H-1-benzopyran-4-yl]-(2R)-2,3-dihydro-1H-indole-2-carboxylic acid ethyl ester]
- % Protection [1]: 89%
- % Inhibition ([5]; listed as EX. 44): 90%

SMILES: CCOC(=O)[C@@H]1Cc2ccccc2N1[C@@H]1c2cc(N)ccc2O[C@](C)(C(OC)OC)[C@H]1O [Example 45, 1-[(2S, 3S, 4R)-6-amino-3,4-dihydro-2-dimethoxymethyl-3-hydroxy-2-methyl-2H-1-benzopyran-4-yl]-(2S)-2,3-dihydro-1H-indole-2-carboxylic acid ethyl ester]
- % Protection ([1]; listed as EX. 45): 96%
- % Inhibition [5]: 81%

SMILES: CCOC(=O)c1cc2ccccc2n1[C@H]1c2cc(N)ccc2O[C@](C)(C(OC)OC)[C@@H]1O [Example 52, 1-[(2S, 3R, 4S)-6-amino-3,4-dihydro-2-dimethoxymethyl-3-hydroxy-2-methyl-2H-1-benzopyran-4-yl]-1H-indole-2-carboxylic acid ethyl ester]
- % Protection [1]: 100%
- % Inhibition ([5]; listed as EX. 52): 95%

SMILES: CCOC(=O)c1cc2ccccc2n1[C@@H]1c2cc(N)ccc2O[C@](C)(C(OC)OC)[C@H]1O [Example 53, 1-[(2S, 3S, 4R)-6-amino-3,4-dihydro-2-dimethoxymethyl-3-hydroxy-2-methyl-2H-1-benzopyran-4-yl]-1H-indole-2-carboxylic acid ethyl ester]
- % Protection ([1]; listed as EX. 53): 94%
- % Inhibition ([5]; listed as EX. 53): 91%
